Data as given in US20260232670A1, “TYRO3 SELECTIVE INHIBITORS AND USES THEREOF” (THE UNIVERSITY OF NORTH CAROLINA AT CHAPEL HILL, priority 2023, published 2026).

Legend:
TYRO3 = molecular target: T1, TYRO3 (Homo sapiens, UniProt Q06418); experiment: Microfluidic capillary electrophoresis (MCE) kinase activity assay, Tyro3; type: biochemical
T1 sequence (Q06418 41-890): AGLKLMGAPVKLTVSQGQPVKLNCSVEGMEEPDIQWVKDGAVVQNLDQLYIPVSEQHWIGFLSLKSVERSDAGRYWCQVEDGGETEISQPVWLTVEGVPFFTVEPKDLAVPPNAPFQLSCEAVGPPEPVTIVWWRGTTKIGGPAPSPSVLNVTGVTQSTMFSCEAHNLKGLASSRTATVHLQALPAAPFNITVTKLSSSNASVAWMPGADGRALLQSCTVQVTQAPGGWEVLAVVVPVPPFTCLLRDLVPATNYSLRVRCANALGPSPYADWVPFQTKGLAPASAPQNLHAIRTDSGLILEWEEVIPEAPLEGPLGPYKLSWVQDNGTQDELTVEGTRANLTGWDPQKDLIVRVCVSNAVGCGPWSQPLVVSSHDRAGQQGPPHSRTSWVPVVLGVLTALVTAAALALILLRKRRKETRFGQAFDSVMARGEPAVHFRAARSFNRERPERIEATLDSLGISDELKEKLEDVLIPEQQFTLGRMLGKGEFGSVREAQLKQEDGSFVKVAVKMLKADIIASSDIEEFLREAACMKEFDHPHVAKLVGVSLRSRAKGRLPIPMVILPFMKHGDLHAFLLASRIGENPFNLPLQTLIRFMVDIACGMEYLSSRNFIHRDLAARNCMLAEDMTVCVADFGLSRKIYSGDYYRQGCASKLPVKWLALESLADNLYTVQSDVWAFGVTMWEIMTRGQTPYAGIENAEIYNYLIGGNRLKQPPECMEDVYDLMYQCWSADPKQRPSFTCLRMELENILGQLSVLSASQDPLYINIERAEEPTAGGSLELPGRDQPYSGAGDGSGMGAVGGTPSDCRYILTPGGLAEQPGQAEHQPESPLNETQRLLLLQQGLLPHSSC
Protocol: (§1) All reactions were terminated by addition of 20 μL of 70 mM EDTA. After a 180 min incubation, phosphorylated and unphosphorylated substrate peptides (Table 6) were separated in buffer supplemented with 1× CR-8 on a LabChip EZ Reader equipped with a 12-sipper chip. Data were analyzed using EZ Reader software.

AXL = molecular target: T2, AXL (Homo sapiens, UniProt P30530); experiment: Microfluidic capillary electrophoresis (MCE) kinase activity assay, Axl; type: biochemical
T2 sequence (P30530 26-894): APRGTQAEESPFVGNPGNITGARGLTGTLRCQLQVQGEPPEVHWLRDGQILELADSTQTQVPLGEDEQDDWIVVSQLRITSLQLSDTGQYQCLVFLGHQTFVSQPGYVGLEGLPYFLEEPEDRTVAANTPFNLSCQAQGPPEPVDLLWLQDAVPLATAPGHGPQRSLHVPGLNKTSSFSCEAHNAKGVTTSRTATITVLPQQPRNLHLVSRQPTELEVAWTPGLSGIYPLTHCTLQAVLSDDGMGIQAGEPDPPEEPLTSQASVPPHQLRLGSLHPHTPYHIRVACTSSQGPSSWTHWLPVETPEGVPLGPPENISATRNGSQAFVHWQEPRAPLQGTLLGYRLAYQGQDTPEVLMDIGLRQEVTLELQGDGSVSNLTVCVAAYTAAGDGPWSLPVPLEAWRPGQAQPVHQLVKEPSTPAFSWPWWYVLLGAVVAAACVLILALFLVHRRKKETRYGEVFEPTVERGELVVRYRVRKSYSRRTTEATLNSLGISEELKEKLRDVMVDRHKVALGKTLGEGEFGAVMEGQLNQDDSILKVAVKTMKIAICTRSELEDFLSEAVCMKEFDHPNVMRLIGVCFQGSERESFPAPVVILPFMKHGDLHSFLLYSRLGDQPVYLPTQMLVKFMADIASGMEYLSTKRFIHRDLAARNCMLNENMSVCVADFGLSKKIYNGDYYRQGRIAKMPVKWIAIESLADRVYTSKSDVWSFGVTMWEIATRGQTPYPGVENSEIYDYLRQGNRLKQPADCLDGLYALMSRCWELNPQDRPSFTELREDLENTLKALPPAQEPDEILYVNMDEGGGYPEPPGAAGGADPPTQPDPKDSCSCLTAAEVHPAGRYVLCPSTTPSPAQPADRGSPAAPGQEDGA
Protocol: as §1

MERTK = molecular target: T3, MERTK (Homo sapiens, UniProt Q12866); experiment: Microfluidic capillary electrophoresis (MCE) kinase activity assay, Mer; type: biochemical
T3 sequence (Q12866 21-999): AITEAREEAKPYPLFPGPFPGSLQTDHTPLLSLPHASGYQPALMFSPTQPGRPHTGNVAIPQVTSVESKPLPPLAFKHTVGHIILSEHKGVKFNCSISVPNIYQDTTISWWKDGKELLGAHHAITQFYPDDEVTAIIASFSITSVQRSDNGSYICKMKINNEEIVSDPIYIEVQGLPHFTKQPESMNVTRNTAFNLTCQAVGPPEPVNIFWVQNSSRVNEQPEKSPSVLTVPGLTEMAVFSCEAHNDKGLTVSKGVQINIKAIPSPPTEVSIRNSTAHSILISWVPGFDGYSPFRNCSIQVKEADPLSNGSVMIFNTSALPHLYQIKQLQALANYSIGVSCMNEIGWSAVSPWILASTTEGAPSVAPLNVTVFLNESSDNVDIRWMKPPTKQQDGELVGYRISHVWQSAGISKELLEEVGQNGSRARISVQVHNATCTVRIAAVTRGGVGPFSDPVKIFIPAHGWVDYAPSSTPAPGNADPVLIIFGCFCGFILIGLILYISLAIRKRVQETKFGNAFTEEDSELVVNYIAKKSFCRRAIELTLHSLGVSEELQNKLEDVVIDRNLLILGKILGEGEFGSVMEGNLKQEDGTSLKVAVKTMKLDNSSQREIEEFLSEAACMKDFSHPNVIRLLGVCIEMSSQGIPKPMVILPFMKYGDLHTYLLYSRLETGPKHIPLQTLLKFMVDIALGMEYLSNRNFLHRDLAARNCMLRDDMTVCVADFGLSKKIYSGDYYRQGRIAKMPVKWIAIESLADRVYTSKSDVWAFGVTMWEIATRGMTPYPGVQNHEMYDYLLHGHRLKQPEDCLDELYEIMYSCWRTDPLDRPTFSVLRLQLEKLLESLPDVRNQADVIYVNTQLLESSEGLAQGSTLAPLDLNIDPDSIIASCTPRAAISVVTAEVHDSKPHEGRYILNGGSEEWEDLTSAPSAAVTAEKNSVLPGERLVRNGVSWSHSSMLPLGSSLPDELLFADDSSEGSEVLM
Protocol: as §1

[1] = cited from earlier work

Row | Compound | IC50 (TYRO3; Table 2, MCE assay, ATP at Km) [µM] | IC50 (AXL; Table 2, MCE assay, ATP at Km) [µM] | IC50 (MERTK; Table 2, MCE assay, ATP at Km) [µM] | other results
1 | CC(C)(C)OC(=O)N1CCN(Cc2ccc(-c3cn([C@H]4CC[C@H](O)CC4)c4nc(Nc5cc(F)cc(Cl)c5)ncc34)cc2)CC1 [Compound 28] | < 0.01 | 0.1 to 1 | 0.1 to 1 | 
2 | O[C@H]1CC[C@H](n2cc(-c3ccc(CN4CCNCC4)cc3)c3cnc(Nc4cc(F)cc(Cl)c4)nc32)CC1 [Compound 29] | < 0.01 | 0.01 to 0.1 | < 0.01 | 
3 | CCN1CCN(Cc2ccc(-c3cn([C@H]4CC[C@H](O)CC4)c4nc(Nc5cc(F)cc(Cl)c5)ncc34)cc2)CC1 [Compound 30] | < 0.01 | 0.01 to 0.1 | < 0.01 | 
4 | O[C@H]1CC[C@H](n2cc(-c3ccc(CN4CCN(C5CCCC5)CC4)cc3)c3cnc(Nc4cc(F)cc(Cl)c4)nc32)CC1 [Compound 31] | < 0.01 | 0.01 to 0.1 | < 0.01 | 
5 | CN1CCC(Oc2ccc(-c3cn([C@H]4CC[C@H](O)CC4)c4nc(Nc5cc(F)cc(Cl)c5)ncc34)cc2)CC1 [Compound 37] | < 0.01 | 0.01 to 0.1 | < 0.01 | 
6 | CN1CCN(Cc2ccc(-c3cn([C@H]4CC[C@@H](O)CC4)c4nc(Nc5cc(F)cc(Cl)c5)ncc34)cc2)CC1 [Compound 39] |  |  |  | IC50 (TYRO3; Table 3, MCE assay, ATP at Km): < 0.01 µM; IC50 (AXL; Table 3, MCE assay, ATP at Km): 0.01 to 0.1 µM; IC50 (MERTK; Table 3, MCE assay, ATP at Km): < 0.01 µM
7 | CN1CCC(Oc2ccc(-c3cn([C@H]4CC[C@H](O)CC4)c4nc(Nc5cc(F)cc(Cl)c5)ncc34)cc2)CC1 [Compound 60] |  |  |  | IC50 (TYRO3; Table 7): < 0.01 µM; IC50 (AXL; Table 7): 0.01 to 0.1 µM; IC50 (MERTK; Table 7): < 0.01 µM
8 | CN1CCN(Cc2ccc(-c3cn([C@H]4CC[C@H](O)CC4)c4nc(Nc5cccnc5)ncc34)cc2)CC1 [Compound 64] | < 0.01 | < 0.01 | < 0.01 | 
9 | CN1CCN(Cc2ccc(-c3cn([C@H]4CC[C@H](O)CC4)c4nc(Nc5cncnc5)ncc34)cc2)CC1 [Compound 66] | < 0.01 | < 0.01 | < 0.01 | 
10 | CN1CCC(Oc2ccc(-c3cn([C@H]4CC[C@H](O)CC4)c4nc(Nc5cc(C(F)(F)F)cc(C(F)(F)F)c5)ncc34)cc2)CC1 [Compound 150, trans-4-(2-((3,5-bis(trifluoromethyl)phenyl)amino)-5-(4-((1-methylpiperidin-4-yl)oxy)phenyl)-7H-pyrrolo[2,3-d]pyrimidin-7-yl)cyclohexan-1-ol] |  |  |  | IC50 (TYRO3; Table 7): 0.01 to 0.1 µM; IC50 (AXL; Table 7): 1 to 30 µM; IC50 (MERTK; Table 7): 1 to 30 µM
11 | CN1CCN(C(=O)c2ccc(-c3cn([C@H]4CC[C@H](O)CC4)c4nc(Nc5cc(F)cc(Cl)c5)ncc34)cc2)CC1 [Compound 156] |  |  |  | IC50 (TYRO3; Table 9): < 0.01 µM; IC50 (AXL; Table 9): 0.01 to 0.1 µM; IC50 (MERTK; Table 9): < 0.01 µM
12 | CC(=O)Oc1ccccc1C(=O)O [aspirin] |  |  |  | baseline major bleeding risk (gastrointestinal or intracranial) ([1]; in vivo): 1-4%
13 | COC(=O)[C@H](c1ccccc1Cl)N1CCc2sccc2C1 [clopidogrel] |  |  |  | further increase of major bleeding risk on addition as a combination therapy ([1]; added to aspirin): 1%
